Test results from patent US20250041367A1, “BACTERIOPHAGES AND USE THEREOF FOR THE TREATMENT OR PREVENTION OF INFECTION CAUSED BY E. COLI” (Purdue Research Foundation, priority 2023, published 2025).

Assays:
ten APEC strains = experiment: Host range (lytic spectrum) over all ten APEC strains, spot assays; type: cell-based, Escherichia coli; conditions: for number of different APEC strains lysed: of ten APEC strains; for degree of lysis against the APEC strains lysed: over the strains that the phage lyses, scale 0-3
Description: The host range of each bacteriophage type was determined by performing spot assays using each of the ten distinct APEC serotypes mentioned above. Spot assays were performed as known in the art (Barrow et al., 1998, Clinical and Diagnostic Laboratory Immunology, 5 (3), 294-298). 100 μL aliquots of log-phase bacterial cultures were combined with 67.5 μL 1M CaCl2) and 4 mL LB overlay, mixed briefly, and poured over LB agar plates. Once the overlay had solidified, 5 μL aliquots of individual phage types were applied (i.e., spotted) onto the plates, and plates were incubated at 37° C. overnight. Plates were assessed for clearings the following day and the degree of lysis was measured using a four-point scale in which 0 indicated no lysis, 1.0 indicated some lysis, 2.0 indicated moderate lysis, and 3 indicated complete lysis. Spot assays were conducted in triplicate for each phage and APEC strain.

host APEC E. coli O6:H31 = experiment: Lytic capacity of individual phages in liquid media (OD600); type: cell-based, Escherichia coli; conditions: for OD600 reading of phage-treated APEC culture: after 1 hour of incubation, MOI 10, 37° C., untreated AHP host OD600=0.497; for concentration of APEC (OD600) versus untreated APEC cultures: 2, 3, and 4 hours post-treatment
Description: (§1) Individual APEC strains (100 μL) were inoculated into 15 mL LB media in separate tubes (two tubes per strain) and incubated at 37° C. in a shaking incubator. Once the bacterial cultures reached an OD600 0.18-0.22, the individual bacteriophage types (MOI=10) were added to one tube from the pair of tubes inoculated with their respective host APEC strain. The other tubes of bacterial culture were left untreated and served as negative controls. Bacterial growth was assessed by measuring absorbance (OD600) in all tubes every hour for 4 hours. The experiment was repeated three times.
(§2) The six APEC strains were individually inoculated into LB broth and incubated at 37° C. until they reached log-phase growth. Phages were added to the log-phase culture of their APEC host at an MOI of 10, and subsequent bacterial concentrations were determined by measuring the absorbance (OD600) of the culture at 1, 2, 3, and 4 hours post-phage application. One flask containing only bacterial culture was included as a negative control. Additional flasks containing both bacterial cultures and antibiotics (specifically, gentamycin sulfate, kanamycin sulfate, nalidixic acid, or chloramphenicol) at their respective minimum inhibitory concentrations (National Antibiotic Resistance Monitoring System (NARMS) 2019, antibiotics tested by NARMS) were included as positive controls. These lytic capacity experiments were conducted in triplicate for each of the phage types and their respective host APEC strains.

[1] = Encapsulation efficiency in sodium alginate microcapsules (plaque assay); type: physicochemical; parameters: Pre-encapsulation phage concentration / Concentration of phages in microcapsules: unit not given here; conditions: for Pre-encapsulation phage concentration: before encapsulation; for Pre-encapsulation phage concentration / Concentration of phages in microcapsules: plaque assay; for Encapsulation efficiency: encapsulated / pre-encapsulation phage concentration; for Concentration of phages in microcapsules: sodium alginate microcapsules dissolved
Description: Bacteriophages were microencapsulated within sodium alginate microcapsules as well-known in the art with some modifications (Krasaekoopt et al., 2004, International Dairy Journal, 14 (8), 737-743). In short, sodium alginate (4 g) was mixed with 400 mL of a bacteriophage filtrate to make a 1% (w/v) suspension. This suspension was allowed to gel at room temperature for 4 hours and was then processed through a Buchi Encapsulator-B395 set at 200 Hz (frequency) and 1000V (electrode) with an aperture of 0.3 mm. The resulting microcapsules were collected in a beaker containing a hardening solution (100 mM CaCl2)) with continuous stirring to avoid clumping of microcapsules. Microcapsules were allowed to sit in the 100 mM CaCl2) solution to harden for 30 minutes and were then washed three times with SM buffer. Washed microcapsules were stored in SM buffer in 50 ml conical tubes at 4° C. until further use. Each of the six phage types was individually microencapsulated in this manner.
To assess the efficiency of microencapsulation, the concentrations of microencapsulated phages were compared to pre-encapsulation concentrations as well-known in the art (Yongsheng et al., 2008, Applied and Environmental Microbiology, 74 (15), 4799). To determine bacteriophage concentrations in microcapsules, microcapsules (0.5 g) were dried by contact with filter paper and then dissolved in 4.5 mL of dissolving solution (50 mM sodium citrate, 0.2M sodium bicarbonate, and 50 mM Tris-HCl; pH 7.5). Bacteriophage concentrations were then quantified by standard plaque assay as described previously. Encapsulation efficiency (EE %) was calculated as:
EE %=encapsulated phage concentration/pre-encapsulation phage concentration

[2] = Phage release from microcapsules in SIF after SGF; type: physicochemical; conditions: encapsulated phage; for phages released from their microcapsules: 1 hour SGF then 1 hour in SIF; for concentration of released phages: 1 hour SGF then 1 hour of incubation in SIF
Description: The extent to which phages were released from microcapsules in the intestinal environment was investigated by incubating encapsulated phages first in SGF and then in SIF. 0.5 g of microencapsulated phages (microcapsules) was added to 4.5 mL SGF in duplicate tube sets and incubated at 41° C. for 1 hour with shaking. SGF was then carefully removed via pipetting and microcapsules were combined with either 4.5 mL of SIF or 4.5 mL 1×PBS and incubated at 41° C. with shaking. Aliquots (100 μL) were collected from each sample at 1, 2, and 3 hours following exposure to SIF. The concentrations of released phages in these aliquots were determined using standard plaque assays with phages' respective host APEC serotypes. The experiment was conducted in triplicate with each phage type.

host APEC E. coli O2:H4 = experiment: Lytic capacity of individual phages in liquid media (OD600); type: cell-based, Escherichia coli; conditions: for OD600 reading of phage-treated APEC culture: after 1 hour of incubation, MOI 10, 37° C., untreated host OD600=0.454
Description: as §1, §2

[3] = Phage stability in simulated intestinal fluid (SIF); type: physicochemical; conditions: unencapsulated phage, SIF pH 7, 41° C., 1, 2, and 3 hours
Description: To assess phage stability in intestinal fluids, 0.5 mL of unencapsulated phages were added to 4.5 mL of simulated intestinal fluid (SIF; 0.1% (w/v) bile salt and 0.4% (w/v) pancreatin in 50 mM KH2PO4; pH 7) and incubated at 41° C. As a negative control, 0.5 mL of unencapsulated phages were added to 4.5 mL of 1×PBS and incubated at 41° C. Aliquots (100 μL) were collected from each sample after 1, 2, and 3 hours of exposure to SIF. These aliquots were serially diluted and phage concentrations were measured by standard plaque assay as described above. The experiment was conducted in triplicate for each phage type. Concentrations of viable phages after exposure to SIF or PBS at a given time point were then compared.

[4] = 1, 2, 3, and 4 hours post-treatment, MOI 10, P<0.05

| Substance | number of different APEC strains lysed (ten APEC strains) | degree of lysis against the APEC strains lysed (ten APEC strains) | concentration of APEC host versus APEC cultures incubated without phages (host APEC E. coli O6:H31; [4]) | OD600 reading of phage-treated APEC culture (host APEC E. coli O6:H31) | Pre-encapsulation phage concentration [1] | Encapsulation efficiency [1] [%] | Concentration of phages in microcapsules [1] | phages released from their microcapsules [2] [%] | concentration of released phages [2] [log10 PFU/mL] | concentration of APEC (OD600) versus untreated APEC cultures (host APEC E. coli O6:H31; MOI 10, P<0.05) | concentration of APEC host versus APEC cultures incubated without phages (host APEC E. coli O2:H4; [4]) | OD600 reading of phage-treated APEC culture (host APEC E. coli O2:H4) | phage concentration SIF-exposed versus PBS-exposed [3] |
| --- | --- | --- | --- | --- | --- | --- | --- | --- | --- | --- | --- | --- | --- |
| Escherichia phage vB_Eco_AHP | four and at least two | 2.7-3.0 | significantly lower | 0.284 | 9.6 ± 0.1 | 97.9 | 9.4 ± 0.1 | 97.4 | 9.14 | – | – | – | – |
| Escherichia phage vB_Eco_AKA | six and at least two | – | – | did not significantly differ | 8.6 ± 0.2 | 98.8 | 8.5 ± 0.1 | 94.4 | 7.99 | Significantly lower | – | – | – |
| Escherichia phage vB_Eco_AHC | six and at least two | – | – | did not significantly differ | 8.9 ± 0.1 | 94.4 | 8.4 ± 0.2 | 95.8 | 7.99 | Significantly lower | – | – | – |
| Escherichia phage vB_Eco_MIA | six and at least two | – | – | did not significantly differ | 8.9 ± 0.1 | 95.5 | 8.5 ± 0.1 | 94.7 | 8.05 | Significantly lower | – | – | – |
| Escherichia phage vB_Eco_MP_2 [MP2] | two and at least two | 3.0 | – | – | 9.4 ± 0.1 | 98.9 | 9.3 ± 0.2 | 95.4 | 8.88 | – | significantly lower | 0.328 | – |
| Escherichia phage vB_Eco_MP_1 [MP1] | two and at least two | 2.7 | – | – | 9.3 ± 0.2 | 98.9 | 9.2 ± 0.2 | 96.5 | 8.94 | – | – | 0.101 | significantly lower |
